Patent publication US20220135567A1, “TYK2 PSEUDOKINASE LIGANDS” (Ventyx Biosciences, Inc., priority 2019, published 2022)
pIC50: −log10 of the molar value.

System: IFN-a/Jak1Tyk2
Test: Co-stimulation assay in lysed whole blood: IFNa (JAK1/TYK2) stimulated STAT1 phosphorylation
Type: cell-based
Conditions: lysed human whole blood, IFNa 100 ng/mL + GM-CSF 10 ng/mL, pSTAT1 by flow cytometry
Method: Dilute RBC lysis buffer to 1× in distilled water. Add 2 mL blood to 38 mL of 1×RBC-lysis buffer. Incubate for 15 mins at RT, in dark. Spin at 300 g, 5 mins, to collect the pellet. Re-lyse if necessary. Re-suspend pellet in 5 mL of cRPMI.
Aliquot 80 μL of lysed human blood in to wells of 96 deep-well plate. Add 10 μl of (10× conc.) of different concentrations of compounds to all wells except controls (unstained and unstimulated) and mix it with the help of 100 uL multichannel. Add 10 uL of RPMI media in controls. For dilution of compounds and dilution range please refer Appendix. Incubate on water bath or CO2 incubator for 1 hour at 37° C. Add 10 μl of (10× conc.) of cytokine mix (GM-CSF and IFNa) (final conc. 10 ng/mL of GM-CSF and 100 ng/mL of IFNa) to each well except unstimulated and unstained controls and incubate further for 20 minutes on water bath at 37° C.
Add 900 μL of prewarmed 1× Fix/Lyse solution (Appendix) and mix it properly using 1000 μl multichannel, incubate further on water bath at 37° C. for 10 minutes (which includes time of addition). Centrifuge at 800×g for 5 minutes at 40° C.; remove 900 uL of supernatant and add 900 μL of 1×PBS. Centrifuge at 800×g for 5 minutes at 40° C., remove 900 μL of supernatant. Wash one more time with 900 μL of PBS (optional) and resuspend pellets in 100 uL of PBS.
Disrupt the pellet by gentle tapping and resuspend in 1000 μL of BD Phosflow Perm Buffer III and incubate plate on ice for 30 minutes. Centrifuge plate at 800×g for 5 minutes at 40° C. Wash two more times with 1000 μL of BD Pharmingen Stain Buffer.
Disrupt the pellet by gentle tapping. Resuspend pellets in 100 uL of Stain Buffer and add 5 μL of pSTAT5_AF488 Ab and 5 uL of pSTAT1_PE in all wells except unstained control and mix properly using 200 μl multichannel, incubate overnight at […]. Add 900 μL of wash buffer and centrifuge at 1800 rpm for 3 minutes at […]. Wash one more time with 1000 μL of BD Pharmingen Stain Buffer. Finally resuspend the pellet in 300 uL of BD Pharmingen Stain Buffer. Transfer the cells to 96-well v-bottom plate and acquire the cells in Beckman Coulter CytExpert. Acquiring cells in Flow Cytometer: Keep the threshold value to 250 and cell concentration should not exceed 100-500 cells/μL. Acquire at least 5,000-10,000 cells.
Cytokine dilution: 1) GM-CSF Stock at 100 ug/mL. Prepare an intermediate dilution of 1 ug/mL by adding 2 uL of stock into 198 uL of cRPMI. Further dilute to 100 ng/mL by adding 100 uL of the intermediate stock to 900 uL of cRPMI. 2) IFNa Stock at 200 ug/mL. Dilute IFNa stock 1:200 by adding 5 uL of stock into the 1000 uL of 100 ng/mL GM-CSF working stock as above to give a combined working stock of 1000 ng/mL of IFNa and 100 ng/mL GM-CSF (10×). Keep it on ice until used.
Lyse/Fix buffer preparation: Dilute 5× Lyse/Fix buffer to 1× using MQ water and keep at 37° C. until used.
BD Phosflow perm buffer III: Keep on ice/fridge.

| Structure (SMILES) | pIC50 (20 min) | pIC50 (20 minutes) |
| --- | --- | --- |
| CNc1cc(Nc2ccc3c(c2)CCN(C)C3)nc2c(C(=O)NC3CC3)cnn12 [Compound 60, N-cyclopropyl-5-((2-methyl-1,2,3,4-tetrahydroisoquinolin-6-yl)amino)-7-(methylamino)pyrazolo[1,5-a]pyrimidine-3-carboxamide] | 5.00 to 6.00 |  |
| CNc1cc(Nc2ccnn2CCO)nc2c(C(=O)NC3CC3)cnn12 [Compound 69, N-cyclopropyl-5-((1-(2-hydroxyethyl)-1H-pyrazol-5-yl)amino)-7-(methylamino)pyrazolo[1,5-a]pyrimidine-3-carboxamide] | 5.00 to 6.00 |  |
| CNc1cc(Nc2cccc3c2OCCO3)nc2c(C(=O)NCC(C)(O)CO)cnn12 (stereo not drawn) [Compound 65, 5-((2,3-dihydrobenzo[b][1,4]doxin-5-yl)amino)-N-(2,3-dihydroxy-2-methylpropyl)-7-(methylamino)pyrazolo[1,5-a]pyrimidine-3-carboxamide] | > 7.00 |  |
| CNc1cc(Nc2ccccc2OC)nc2c(C(=O)NCC(C)(C)CO)cnn12 [Compound 22, N-(3-hydroxy-2,2-dimethylpropyl)-5-((2-methoxyphenyl)amino)-7-(methylamino)pyrazolo[1,5-a]pyrimidine-3-carboxamide] | > 7.00 |  |
| CNc1cc(Nc2cccn(-c3ccc(OC)nn3)c2=O)nc2c(C(=O)NC3CC(O)C3)cnn12 (stereo not drawn) [Compound 104, N-(3-hydroxycyclobutyl)-5-((1-(6-methoxypyridazin-3-yl)-2-oxo-1,2-dihydropyridin-3-yl)amino)-7-(methylamino)pyrazolo[1,5-a]pyrimidine-3-carboxamide] | 6.00 to 7.00 |  |
| CNc1cc(Nc2cccc3c2OCCC3)nc2c(C(=O)NC3CCC3)cnn12 [Compound 89, 5-(chroman-8-ylamino)-N-cyclobutyl-7-(methylamino)pyrazolo[1,5-a]pyrimidine-3-carboxamide] | > 7.00 |  |
| CC(C)(CO)CNC(=O)c1cnn2c(N)cc(Nc3cccc4c3OCO4)nc12 [Compound 58, 7-amino-5-(benzo[d][1,3]dioxol-4-ylamino)-N-(3-hydroxy-2,2-dimethylpropyl)pyrazolo[1,5-a]pyrimidine-3-carboxamide] | 6.00 to 7.00 |  |
| CNc1cc(Nc2cccc3c2OCCO3)nc2c(C(=O)NC3CC3)cnn12 [Compound 20, N-cyclopropyl-5-((2,3-dihydrobenzo[b][1,4]dioxin-5-yl)amino)-7-(methylamino)pyrazolo[1,5-a]pyrimidine-3-carboxamide] | > 7.00 |  |
| CCOC(=O)c1nn(C)cc1Nc1cc(NC)n2ncc(C(=O)NC3CC3)c2n1 [Compound 42, ethyl 4-((3-(cyclopropylcarbamoyl)-7-(methylamino)pyrazolo[1,5-a]pyrimidin-5-yl)amino)-1-methyl-1H-pyrazole-3-carboxylate] | 6.00 to 7.00 |  |
| CNc1cc(Nc2cccc3c2OCCO3)nc2c(C(=O)NCC(C)(C)O)cnn12 [Compound 63, 5-((2,3-dihydrobenzo[b][1,4]dioxin-5-yl)amino)-N-(2-hydroxy-2-methylpropyl)-7-(methylamino)pyrazolo[1,5-a]pyrimidine-3-carboxamide] | > 7.00 |  |
| CNc1cc(Nc2cscc2C(=O)O)nc2c(C(=O)NC3CC3)cnn12 [Compound 36, 4-((3-(cyclopropylcarbamoyl)-7-(methylamino)pyrazolo[1,5-a]pyrimidin-5-yl)amino)thiophene-3-carboxylic acid] | < 6.52 |  |

More lines, now with the values ahead:

| pIC50 (20 min) | pIC50 (20 minutes) | Structure (SMILES) |
| --- | --- | --- |
| < 5.52 |  | CNc1cc(Nc2cccn(C)c2=O)nc2c(C(=O)NC3CC(O)C3)cnn12 (stereo not drawn) [Compound 86, N-(3-hydroxycyclobutyl)-5-((1-methyl-2-oxo-1,2-dihydropyridin-3-yl)amino)-7-(methylamino)pyrazolo[1,5-a]pyrimidine-3-carboxamide] |
| 6.00 to 7.00 |  | CCNc1cc(Nc2cc(C)cc(C)c2)nc2c(C(N)=O)cnn12 [Compound 72, 5-((3,5-dimethylphenyl)amino)-7-(ethylamino)pyrazolo[1,5-a]pyrimidine-3-carboxamide] |
| < 5.52 |  | CNc1cc(Nc2cccn(-c3ccc(OC)nn3)c2=O)nc2c(C(=O)NCC(C)(O)CO)cnn12 (stereo not drawn) [Compound 105, N-(2,3-dihydroxy-2-methylpropyl)-5-((1-(6-methoxypyridazin-3-yl)-2-oxo-1,2-dihydropyridin-3-yl)amino)-7-(methylamino)pyrazolo[1,5-a]pyrimidine-3-carboxamide] |
| > 7.00 |  | CNc1cc(Nc2cccc3c2OCCC3)nc2c(C(=O)NCC(C)(C)CO)cnn12 [Compound 90, 5-(chroman-8-ylamino)-N-(3-hydroxy-2,2-dimethylpropyl)-7-(methylamino)pyrazolo[1,5-a]pyrimidine-3-carboxamide] |
| > 7.00 |  | CNc1cc(Nc2ccc3c(c2)OCCO3)nc2c(C(=O)NC3CC3)cnn12 [Compound 27, N-cyclopropyl-5-((2,3-dihydrobenzo [b][1,4]dioxin-6-yl)amino)-7-(methylamino)pyrazolo[1,5-a]pyrimidine-3-carboxamide] |
| > 7.00 |  | CNc1cc(Nc2cccc(N3CCOCC3)c2)nc2c(C(=O)NC3CC3)cnn12 [Compound 55, N-cyclopropyl-7-(methylamino)-5-((3-morpholinophenyl)amino)pyrazolo [1,5-a]pyrimidine-3-carboxamide] |
| 6.00 to 7.00 |  | CNc1cc(Nc2ccccc2OC(F)(F)F)nc2c(C(=O)NC3CC3)cnn12 [Compound 54, N-cyclopropyl-7-(methylamino)-5-((2-(trifluoromethoxy)phenyl)amino) pyrazolo[1,5-a]pyrimidine-3-carboxamide] |
| > 7.00 |  | [2H]C([2H])([2H])Nc1cc(Nc2cc(F)cc3c2OCCO3)nc2c(C(N)=O)cnn12 [Compound 76, 5-((7-fluoro-2,3-dihydrobenzo[b][1,4]dioxin-5-yl)amino)-7-((methyl-d3)amino)pyrazolo[1,5-a]pyrimidine-3-carboxamide] |
| 6.00 to 7.00 |  | CNC(=O)c1cscc1Nc1cc(NC)n2ncc(C(=O)NC3CC3)c2n1 [Compound 44, N-cyclopropyl-7-(methylamino)-5-((4-(methylcarbamoyl)thiophen-3-yl)amino)pyrazolo[1,5-a]pyrimidine-3-carboxamide] |
| > 7.00 |  | CNc1cc(Nc2cccc3c2OCCO3)nc2c(C(=O)NC3C[C@@H]3F)cnn12 (stereo partly drawn) [Compound 97, 5-((2,3-dihydrobenzo[b][1,4]dioxin-5-yl)amino)-N-((2S)-2-fluorocyclopropyl)-7-(methylamino)pyrazolo[1,5-a]pyrimidine-3-carboxamide] |
|  | > 7.00 | CNc1cc(Nc2cc(C)cc(C)c2)nc2c(C(N)=O)cnn12 [Compound 10, 5-((3,5-dimethylphenyl)amino)-7-(methylamino)pyrazole[1,5-a]pyrimidine-3-carboxamide] |
| 6.00 to 7.00 |  | CNc1cc(Nc2cccc3c2OCCO3)nc2c(C(=O)NCC(F)(F)F)cnn12 [Compound 52, 5-((2,3-dihydrobenzo[b][1,4]dioxin-5-yl)amino)-7-(methylamino)-N-(2,2,2-trifluoroethyl)pyrazolo[1,5-a]pyrimidine-3-carboxamide] |
| > 7.00 |  | CNc1cc(Nc2cccn(-c3ccc(OC)nn3)c2=O)nc2c(C(=O)NC3CC3)cnn12 [Compound 40, N-cyclopropyl-5-((1-(6-methoxypyridazin-3-yl)-2-oxo-1,2-dihydropyridin-3-yl)amino)-7-(methylamino)pyrazolo[1,5-a]pyrimidine-3-carboxamide] |
